From patent publication US6423689B1, “Peptidyl calcium channel blockers” (Warner-Lambert Company, priority 1997, dated 2002)

Legend:
[1] = target: T1, N-type Ca2+ channels in IMR-32 cells (Homo sapiens, UniProt Q00975); experiment: Inhibition of N-type calcium flux in IMR-32 cells (Indo-1 fluorescence, nitrendipine present); assay type: cell-based; conditions: for inhibition at 1 µM / inhibition at 10 µM: IMR-32; for IC50: IMR-32 cells, 5 μM nitrendipine, K+ depolarization
T1 construct: host or cells: IMR-32 cells, differentiated with dibutyryl cAMP and bromodeoxyuridine
Summary of the method: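 With L-type flux blocked by 5 μM nitrendipine, N-type Ca2+ entry was read as the Indo-1 emission ratio (400/490 nm, excitation 350 nm) at 30° C after KCl depolarization.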

[2] = system: Na+ channels in superior cervical ganglion (SCG) neurons; experiment: Whole-cell voltage clamp, Na+ current in SCG neurons; assay type: cell-based, rat; conditions: for IC50: read-out: Inhibition of Na+ Current IC50
Method: (§1) Electrophysiological techniques were used to measure the effects of experimental compounds on voltage-gated Ca^2+, Na^+ and K^+ channels. […] Sodium and potassium channel currents were measured from acutely dissociated SCG neurons.
(§2) Dissociation of the neurons from the ganglia was accomplished using a 30 to 45 minute treatment in 0.25% trypsin, similar to methods outlined in Higgins, et al. [see Higgins D., et al. “Tissue culture of mammalian autonomic neurons.” In Banker G. and Goslin K. (Eds), Culturing Nerve Cells, Cambridge, Mass., MIT Press (1991)].
(§3) Ca^2+, Na^+ and K^+ channel currents in SCG neurons were measured using conventional single electrode whole-cell voltage-clamp techniques, outlined in Hamill, et al., (see Hamill O.P., et al. “Improved patch-clamp techniques for high resolution current recordings from cells and cell-free membrane patches”. Pflugers Arch. 1981;391:85-100) For Ca^2+ channel experiments, the external bathing solution contained tetraethylammonium chloride (100 mM), choline chloride (52 mM), NaCl (15 mM), HEPES (10 mM), glucose (5.6 mM), CaCl2 (2 mM), and MgCl2 (0.8 mM) pH 7.35 with KOH; with the internal pipette solution containing cesium methane sulfonate (140 mM), EGTA (10 mM), and HEPES (10 mM), supplemented with 5 mM Mg^2+ -ATP on the day of the experiment, pH 7.4 with CsOH. For Na^+ and K^+ channel experiments, the external bathing solution contained NaCl (150 mM), KCl (5 mM), MgCl2 (1.1 mM), CaCl2 (2.6 mM), Na-HEPES (10 mM), and glucose (10 mM), pH 7.4; with the internal pipette solution containing KCl (80 mM), K-gluconate (50 mM), HEPES (10 mM), and EGTA (10 mM), pH 7.4 with KOH. Experimental compounds were diluted into the external solution and applied to the soma of cells by local perfusion from large diameter (20-50 μm) glass micropipettes or from a U-tube applicator.
(§4) For Na^+ and K^+ channel currents, following the determination of the I/V relationship for each cell in control solution, currents were evoked from a holding potential between −65 and −55 mV by stepping every 10 sec to a test potential of either 0 mV for Na^+ or +50 mV for K^+ current for a duration of 35 msec. Peak inward current was measured for Na^+ and sustained current for K^+ channel currents. […] Test compounds were applied until steady-state block was achieved. Data were expressed as percent inhibition of control amplitudes for Na^+ and K^+ channel currents.

[3] = system: K+ channels in superior cervical ganglion (SCG) neurons; experiment: Whole-cell voltage clamp, K+ current in SCG neurons; assay type: cell-based, rat; conditions: for IC50: read-out: Inhibition of K+ Current IC50
Method: as §1, §2, §3, §4

[4] = target: T2, N-type Ca2+ channels in superior cervical ganglion (SCG) neurons (Rattus norvegicus, UniProt Q02294); experiment: Whole-cell voltage clamp, N-type Ca2+ current in SCG neurons; assay type: cell-based; conditions: for IC50: read-out: Inhibition of N-type Ca2+ Current IC50
T2 construct: from tissue
Method: as §1, §2, §3
After obtaining a whole-cell recording, Ca^2+ channels were elicited by stepping to test potentials between −40 and +20 mV for 120 msec from the holding potential of −90 mV to determine if the amplitude of the current and clamp control were adequate for evaluation of drug effects. Ca^2+ channel currents were evoked by stepping from a holding potentials between −65 mV and −−55 mV to a test potential of +20 mV for 150 msec every 40 seconds. The amplitude of the Ca^2+ channel currents were compared before and during drug application and drug effects expressed as percent inhibition of the amplitude of control currents.

T1 sequence (Q00975 whole entry): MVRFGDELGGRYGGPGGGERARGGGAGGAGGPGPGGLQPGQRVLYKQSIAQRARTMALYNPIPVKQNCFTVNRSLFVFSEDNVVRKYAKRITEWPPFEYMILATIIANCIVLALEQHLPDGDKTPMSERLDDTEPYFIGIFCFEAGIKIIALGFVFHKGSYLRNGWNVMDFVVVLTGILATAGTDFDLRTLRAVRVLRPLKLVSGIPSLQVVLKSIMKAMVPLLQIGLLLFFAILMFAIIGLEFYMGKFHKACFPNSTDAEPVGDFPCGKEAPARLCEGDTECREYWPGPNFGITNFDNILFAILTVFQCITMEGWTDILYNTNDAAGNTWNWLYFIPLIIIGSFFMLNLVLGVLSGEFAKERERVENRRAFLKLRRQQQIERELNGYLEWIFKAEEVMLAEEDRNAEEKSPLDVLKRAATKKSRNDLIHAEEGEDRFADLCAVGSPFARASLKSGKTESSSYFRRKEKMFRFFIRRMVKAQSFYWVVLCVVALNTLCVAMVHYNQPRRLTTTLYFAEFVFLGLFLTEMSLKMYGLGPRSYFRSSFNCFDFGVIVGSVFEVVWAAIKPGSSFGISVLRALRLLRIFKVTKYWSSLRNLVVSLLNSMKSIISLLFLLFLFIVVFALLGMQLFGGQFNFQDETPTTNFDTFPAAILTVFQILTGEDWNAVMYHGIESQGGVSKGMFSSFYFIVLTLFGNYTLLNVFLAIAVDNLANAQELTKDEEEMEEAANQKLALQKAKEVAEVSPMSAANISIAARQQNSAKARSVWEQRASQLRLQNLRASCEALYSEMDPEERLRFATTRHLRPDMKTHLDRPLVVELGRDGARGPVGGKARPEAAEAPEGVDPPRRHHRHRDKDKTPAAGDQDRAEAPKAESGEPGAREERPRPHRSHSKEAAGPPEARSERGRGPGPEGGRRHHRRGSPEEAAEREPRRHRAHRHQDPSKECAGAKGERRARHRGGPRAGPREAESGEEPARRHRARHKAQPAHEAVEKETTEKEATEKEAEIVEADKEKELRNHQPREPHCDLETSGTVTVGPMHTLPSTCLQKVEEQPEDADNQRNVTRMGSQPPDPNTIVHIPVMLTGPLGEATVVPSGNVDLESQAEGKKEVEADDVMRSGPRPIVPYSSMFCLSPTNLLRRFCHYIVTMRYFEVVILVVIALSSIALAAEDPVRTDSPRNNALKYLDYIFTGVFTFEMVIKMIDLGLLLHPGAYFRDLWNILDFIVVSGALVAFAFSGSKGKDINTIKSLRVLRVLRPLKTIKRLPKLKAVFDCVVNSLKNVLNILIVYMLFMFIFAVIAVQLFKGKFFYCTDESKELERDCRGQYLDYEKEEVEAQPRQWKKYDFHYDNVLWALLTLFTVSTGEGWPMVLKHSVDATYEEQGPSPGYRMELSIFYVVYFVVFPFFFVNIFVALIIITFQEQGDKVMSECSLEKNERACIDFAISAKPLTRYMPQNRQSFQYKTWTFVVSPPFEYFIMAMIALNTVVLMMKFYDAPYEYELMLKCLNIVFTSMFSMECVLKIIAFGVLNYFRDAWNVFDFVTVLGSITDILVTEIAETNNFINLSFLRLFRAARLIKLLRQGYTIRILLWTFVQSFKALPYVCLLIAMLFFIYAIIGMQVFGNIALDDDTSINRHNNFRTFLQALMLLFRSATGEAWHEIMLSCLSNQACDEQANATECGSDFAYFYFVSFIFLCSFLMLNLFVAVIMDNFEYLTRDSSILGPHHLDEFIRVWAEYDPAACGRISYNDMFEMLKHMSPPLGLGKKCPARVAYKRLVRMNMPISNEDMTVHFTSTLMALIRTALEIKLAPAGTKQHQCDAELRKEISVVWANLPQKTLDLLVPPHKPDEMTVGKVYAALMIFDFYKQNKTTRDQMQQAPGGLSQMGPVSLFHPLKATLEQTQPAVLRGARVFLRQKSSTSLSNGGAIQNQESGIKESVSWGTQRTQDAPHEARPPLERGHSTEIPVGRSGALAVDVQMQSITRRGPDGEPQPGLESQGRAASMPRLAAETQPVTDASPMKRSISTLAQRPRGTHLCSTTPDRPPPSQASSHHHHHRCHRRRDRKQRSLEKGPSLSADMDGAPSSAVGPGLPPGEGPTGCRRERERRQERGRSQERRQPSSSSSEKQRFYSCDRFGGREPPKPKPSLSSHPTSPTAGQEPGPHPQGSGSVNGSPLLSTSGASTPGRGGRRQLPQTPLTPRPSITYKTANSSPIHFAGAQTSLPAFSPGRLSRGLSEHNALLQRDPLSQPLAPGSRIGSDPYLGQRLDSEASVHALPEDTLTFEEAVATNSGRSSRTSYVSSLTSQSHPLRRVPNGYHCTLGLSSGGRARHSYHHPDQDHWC
T1 sequence (P54289 25-956 partner limits assumed): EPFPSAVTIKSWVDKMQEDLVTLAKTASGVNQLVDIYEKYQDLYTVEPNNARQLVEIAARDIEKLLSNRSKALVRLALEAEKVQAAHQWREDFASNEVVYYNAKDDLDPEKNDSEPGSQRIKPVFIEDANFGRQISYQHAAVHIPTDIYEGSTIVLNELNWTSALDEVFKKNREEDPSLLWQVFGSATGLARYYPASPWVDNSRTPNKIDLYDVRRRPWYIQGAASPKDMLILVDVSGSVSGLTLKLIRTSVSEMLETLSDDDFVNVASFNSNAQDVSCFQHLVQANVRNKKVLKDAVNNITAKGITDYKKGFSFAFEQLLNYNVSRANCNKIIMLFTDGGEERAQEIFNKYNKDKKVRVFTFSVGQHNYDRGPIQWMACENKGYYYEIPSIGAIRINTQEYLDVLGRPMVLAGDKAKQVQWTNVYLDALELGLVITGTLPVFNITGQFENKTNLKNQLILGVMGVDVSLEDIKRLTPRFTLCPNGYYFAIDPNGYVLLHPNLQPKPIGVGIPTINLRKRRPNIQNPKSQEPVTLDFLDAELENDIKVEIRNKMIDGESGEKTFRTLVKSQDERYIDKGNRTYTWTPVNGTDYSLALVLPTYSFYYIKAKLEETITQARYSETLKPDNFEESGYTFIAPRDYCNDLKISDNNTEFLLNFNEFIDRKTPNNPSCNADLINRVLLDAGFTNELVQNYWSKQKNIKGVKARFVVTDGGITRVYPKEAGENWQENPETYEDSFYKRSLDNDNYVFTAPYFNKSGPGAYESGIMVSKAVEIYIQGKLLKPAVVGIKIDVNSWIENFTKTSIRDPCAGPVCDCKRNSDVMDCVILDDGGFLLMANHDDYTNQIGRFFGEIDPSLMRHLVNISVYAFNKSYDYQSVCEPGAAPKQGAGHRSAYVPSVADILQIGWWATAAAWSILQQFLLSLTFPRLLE
T1 sequence (P54289 957-1103 partner limits assumed): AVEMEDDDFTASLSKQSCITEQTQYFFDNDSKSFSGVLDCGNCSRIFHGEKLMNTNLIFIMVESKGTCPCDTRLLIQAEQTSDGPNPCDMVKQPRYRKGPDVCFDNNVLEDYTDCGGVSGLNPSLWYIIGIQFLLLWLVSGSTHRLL
T1 sequence (P54284 whole entry partner): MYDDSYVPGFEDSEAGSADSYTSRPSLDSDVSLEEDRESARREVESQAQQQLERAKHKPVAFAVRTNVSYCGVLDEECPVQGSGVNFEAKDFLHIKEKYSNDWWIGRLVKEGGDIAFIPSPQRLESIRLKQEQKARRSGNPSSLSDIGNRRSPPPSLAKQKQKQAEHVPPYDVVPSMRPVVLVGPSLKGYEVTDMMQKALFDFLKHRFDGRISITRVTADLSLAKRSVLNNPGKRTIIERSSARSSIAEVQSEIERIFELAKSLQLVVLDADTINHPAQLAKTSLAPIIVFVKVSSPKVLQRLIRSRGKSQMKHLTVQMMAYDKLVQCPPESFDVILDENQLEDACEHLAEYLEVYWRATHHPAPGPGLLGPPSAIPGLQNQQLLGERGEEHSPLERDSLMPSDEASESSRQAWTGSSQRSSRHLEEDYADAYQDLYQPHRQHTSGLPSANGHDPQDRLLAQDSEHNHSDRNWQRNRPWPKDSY

Row | SMILES | inhibition at 1 µM [1] | inhibition at 10 µM [1] | IC50 [1] | melting point | Inhibition of Na+ Current, % Inhibition at 10 μM [2] | Inhibition of K+ Current, % Inhibition at 10 μM [3] | Inhibition of N-type Ca2+ Current, % Inhibition at 10 μM [4] | IC50 [4] | IC50 [2] | IC50 [3] | inhibition at 10 µM [4] | Inhibition of Calcium Flux in IMR-32 Cells % Inhibition at 1 μM ([1]; 1 μM)
1 | CC(C)C[C@H](NS(=O)(=O)N1CCCCCC1)C(=O)N[C@@H](Cc1ccc(OCc2ccccc2)cc1)C(=O)OC(C)(C)C [Example 40, [S-(R*,R*)]-2-[2-(Azepane-1-sulfonylamino)-4-methyl-pentanoylamino]-3-(4-benzyloxy-phenyl)-propionic acid tert-butyl ester] | 48% | 86% | 1000 nM | 123 to 124 °C | – | – | – | – | – | – | – | –
2 | CC(C)C[C@H](NS(=O)(=O)N1CCCCC1)C(=O)N[C@@H](Cc1ccc(OCc2ccccc2)cc1)C(=O)OC(C)(C)C [Example 41, [S-(R*,R*)]-3-(4-Benzyloxy-phenyl)-2-[4-methyl-2-(piperidine-1-sulfonylamino)-pentanoylamino]-propionic acid tert-butyl ester] | 51% | 86% | 800 nM | 125 to 126 °C | – | – | – | – | – | – | – | –
3 | CC(C)C[C@H](NC(=O)N1CCN(c2ccccc2)CC1)C(=O)N[C@@H](Cc1ccc(OCc2ccccc2)cc1)C(=O)OC(C)(C)C [Example 10, [S-(R*,R*)]-3-(4-Benzyloxy-phenyl)-2-{4-methyl-2-[(4-phenyl-piperazine-1-carbonyl)-amino]-pentanoylamino}-propionic acid tert-butyl ester] | 46% | 73% | 2100 nM | 67 to 69 °C | – | – | – | – | – | – | – | –
4 | CC(C)C[C@H](NC(=S)NC1CCCCC1)C(=O)N[C@@H](Cc1ccc(OCc2ccccc2)cc1)C(=O)OC(C)(C)C [Example 47, [S-(R*,R*)]-3-(4-benzyloxy-phenyl)-2-[2-(3-cyclohexyl-thioureido)-4-methyl-pentanoylamino}-propionic acid, tert-butyl ester] | 42% | 63% | 1300 nM | 161 to 162 °C | – | – | – | – | – | – | – | –
5 | CC(C)C[C@H](NS(=O)(=O)c1ccc(Br)cc1)C(=O)N[C@@H](Cc1ccc(OCc2ccccc2)cc1)C(=O)OC(C)(C)C [Example 38, [S-(R*,R*)]-2-{2-[(4-Bromobenzene-1-sulfonyl-carbonyl)-amino]-4-methyl-pentanoylamino-3-(4-benzyloxyphenyl)-propionic acid, tert-butyl ester] | 48% | 83% | 940 nM | 148 to 149 °C | – | – | – | – | – | – | – | –
6 | CC(C)CC(NC(=O)N1CCCCCC1)C(=O)NC(Cc1ccc(OCc2ccccc2)cc1)C(=O)NC(C)C(C)C (stereo not drawn) [Example 192, Azepane-1-carboxylic acid {1-[2-(4-benzyloxy-phenyl)-1-(1,2-dimethylpropylcarbamoyl)-ethylcarbamoyl]-3-methyl-butyl}-amide] | – | – | 920 nM | – | 26% | 58% | 58% | 2840 nM | – | – | – | –
7 | CC(C)C[C@H](NC(=O)N1CCCCCC1)C(=O)N[C@@H](Cc1ccc(OCc2ccccc2)cc1)C(=O)NCCCNC1CCCCC1 [Example 184, [S-(R*,R*)]-Azepane-1-carboxylic acid {1-[2-(4-benzyloxy-phenyl)-1-(3-cyclohexylamino-propylcarbamoyl)-ethylcarbamoyl]-3-methyl-butyl}-amide] | – | – | 2600 nM | – | 82% | 89% | – | 1190 nM | 4850 nM | 490 nM | 54% | –
8 | CC(C)C[C@H](NC(=O)N1CCOCC1)C(=O)N[C@@H](Cc1ccc(OCc2ccccc2)cc1)C(=O)NCCN1CCCCC1 [Example 177, [S-(R*,R*)]-Morpholine-4-carboxylic acid {1-[2-(4-benzyloxy-phenyl)-1-(2-piperidin-1-ylethylcarbamoyl)-ethylcarbamoyl]-3-methyl-butyl}-amide] | – | – | 2900 nM | – | 31% | 68% | – | 2030 nM | – | – | 87% | –
9 | CC(C)C[C@H](NC(=O)N1CCN(C)CC1)C(=O)N[C@@H](Cc1ccc(OCc2ccccc2)cc1)C(=O)OC(C)(C)C (relative stereo) [Example 9, [S-(R*,R*)]-3-(4-Benzyloxy-phenyl)-2-{4-methyl-2-[(4-methyl-piperazine-1-carbonyl)-amino]-pentanoylamino}-propionic acid tert-butyl ester] | – | – | – | – | 44% | 61% | 81% | – | – | – | – | 28%
10 | O=C(NCCN1CCCCC1)[C@H](Cc1ccc(OCc2ccccc2)cc1)NC(=O)[C@H](CC1CCCCC1)NC(=O)N1CCCCCC1 [Example 162, [S-(R*,R*)]-Azepane-1-carboxylic acid {1-[2-(4-benzyloxy-phenyl)-1-(2-piperidin-1-ylethylcarbamoyl)-ethylcarbamoyl]-2-cyclohexyl-ethyl}-amide] | – | – | 960 nM | – | 32% | 40% | – | – | – | – | 47% | –
11 | CC(C)CC(NC(=O)N1CCCCCC1)C(=O)NC(C)(Cc1ccc(OCc2ccccc2)cc1)C(=O)OC(C)(C)C (stereo not drawn) [Example 11A, [S-(R*,R*)]-2-{2-[(Azepane-1-carbonyl)-amino]-4-methyl-pentanoylamino}-3-(4-benzyloxy-phenyl)-2-methyl-propionic acid tert-butyl ester] | 61% | 88% | 530 nM | – | 11% | 47% | – | – | – | – | 47% | –
12 | CC(C)CC(NC(=O)N1CCCCCC1)C(=O)NC(Cc1ccc(OCc2ccccc2)cc1)C(=O)NC(C)C(C)C (stereo not drawn) [Example 191, Azepane-1-carboxylic acid {1-[2-(4-benzyloxy-phenyl)-1-(1,2-dimethyl-propylcarbamoyl)-ethylcarbamoyl]-3-methyl-butyl}-amide] | – | – | 720 nM | – | 38% | 64% | – | 4370 nM | 42300 nM | 5700 nM | 61% | –
13 | CC(C)C[C@H](NC(=O)N1CCCCCC1)C(=O)N[C@@H](Cc1ccc(OCc2ccccc2)cc1)C(=O)N1CCCCC1 [Example 167, [S-(R*,R*)]-Azepane-1-carboxylic acid {1-[1-(4-benzyloxy-benzyl)-2-oxo-2-piperidin-1-ylethylcarbamoyl]-3-methyl-butyl}-amide] | 58% | – | 530 nM | – | −2% | 8% | – | – | – | – | 4% | –
14 | CC(C)C[C@H](NC(=O)N1CCCCCC1)C(=O)N[C@@H](Cc1ccc(OCc2cccc(NC(=O)OC(C)(C)C)c2)cc1)C(=O)OC(C)(C)C [Example 28, [S-(R*,R*)]-2-{2-[(Azepane-1-carbonyl)-amino]-4-methyl-pentanoylamino}-3-[4-(3-tert-butoxycarbonylamino-benzyloxy)-phenyl]-propionic acid tert-butyl ester] | 42% | 65% | 1800 nM | – | 5% | 11% | – | – | – | – | 40% | –
